Test results: ChEMBL document CHEMBL1144247, “Fluorescent polycyclic ligands for nitric oxide synthase (NOS) inhibition” (Bioorg Med Chem, 2008)

Test: Inhibition of NOS in Sprague-Dawley rat brain by oxyhaemoglobin assay

| SMILES | pIC50 | IC50 |
| --- | --- | --- |
| CNc1ccccc1C(=O)OC12C3C4CC5C6C4C1C6C1(OCCCN12)C53 (centres undefined) | 2.93 |  |
| O=C(NC12CC3CC(CC(C3)C1)C2)c1n[nH]c2ccccc12 | 3.52 | 2530 nM |
| N#Cc1c2ccccc2cn1C12CC3CC(CC(C3)C1)C2 | 4.52 | 291 nM |
| O=C(O)c1n[nH]c2ccccc12 | 3.28 | 9650 nM |
| N#CSc1c2ccccc2cn1C12CC3CC(CC(C3)C1)C2 | 3.88 |  |
| CNc1ccccc1C(=O)NC12CC3CC(CC(C3)C1)C2 | 2.53 |  |
| N=C(N)NN [PIMAGEDINE] | 2.72 | 19400 nM |
| O=C(OC12C3C4CC5C6C4C1C6C1(OCCCN12)C53)c1n[nH]c2ccccc12 (centres undefined) | 4.22 | 350 nM |
| O=[N+]([O-])c1c2ccccc2cn1C12CC3CC(CC(C3)C1)C2 | 3.74 |  |
